Source: BindingDB's records for doi:10.1021/jm00126a011 (Pfizer, 1989)

target: T1, Aldo-keto reductase family 1 member B1 (Homo sapiens, UniProt P15121); experiment: Compound was evaluated for inhibition of human placental aldose reductase (HPAR) activity with glyceraldehyde as substrate

| IC50 [nM] | SMILES |
| --- | --- |
| 50 | CS(=O)(=O)c1ccc(Cl)cc1-c1[nH]c(=O)[nH]c1O |
| 250 | C[S+]([O-])c1ccc(Cl)cc1-c1[nH]c(=O)[nH]c1O (configuration not stated) |

target: T1, Aldo-keto reductase family 1 member B1; experiment: ChEBML_157077
Text: Inhibition of human placental aldose reductase (HPAR) activity with glyceraldehyde as substrate

| IC50 [nM] | SMILES |
| --- | --- |
| 270 | Cc1cc(Cl)cc(-c2[nH]c(=O)[nH]c2O)c1S(C)(=O)=O |
| 580 | CCCNS(=O)(=O)c1ccc(Cl)cc1-c1[nH]c(=O)[nH]c1O |
| 230 | O=c1[nH]c(O)c(-c2cc(Cl)ccc2S(=O)(=O)Nc2ccc(F)cc2)[nH]1 |
| 230 | CCCCCCS(=O)(=O)c1ccc(Cl)cc1-c1[nH]c(=O)[nH]c1O |
| 270 | O=c1[nH]c(O)c(-c2cc(Cl)ccc2S(=O)(=O)Cc2ccc(Cl)cc2)[nH]1 |
| 50 | CCCCCS(=O)(=O)c1ccc(Cl)cc1-c1[nH]c(=O)[nH]c1O |
| 610 | CS(=O)(=O)c1c(Cl)cc(Cl)cc1-c1[nH]c(=O)[nH]c1O |
| 250 | CCCS(=O)(=O)c1ccc(Cl)cc1-c1[nH]c(=O)[nH]c1O |
| 580 | CS(=O)(=O)c1c(-c2[nH]c(=O)[nH]c2O)cc(Cl)cc1C(F)(F)F |
| 610 | CS(=O)(=O)c1ccc(F)cc1-c1[nH]c(=O)[nH]c1O |
